Measured values from US8846566B2, “Composition for controlling plant diseases and method for controlling plant diseases” (Sumitomo Chemical Company, Limited, priority 2008, dated 2014).

Assays:
Format in all cases: in vivo
[1] = system: Rhizoctonia solani, pathogen of brown patch of turf; test: Test Example 5: foliage application on turf, brown patch control (with metconazole); settings: 10 days after inoculation
Description: Control value=100(A−B)/A “Equation 1”; Generally, the control value expected for the case where the given two kinds of active ingredient compounds are mixed and used for the treatment, the so-called control value expectation is calculated from the following Colby's calculating equation. E=X+Y−(X×Y)/100 “Equation 2”; E: Control value (%) expected for the case in which active ingredient compound A in M ppm, in M g per 100 kg of seeds or in M g per 1 hectare and active ingredient compound B in N ppm, in N g per 100 kg of seeds or in N g per 1 hectare are mixed and used for treatment (hereinbelow referred to as “control value expectation”) “Synergetic effect(%)”=(Actual control value)×100/(Control value expectation) A plastic pot was filled with sandy soil, and turf (Bent grass Penncross) was then disseminated. The turf was allowed to grow in a green house for 20 days. A wettable powder of the compound (1b) and a commercially available metconazole formulation (Caramba (registered trademark) produced by BASF) were respectively diluted with water and then tank-mixed so as to prepare tank-mixed liquids containing the compound (1b) and the metconazole in predetermined concentration. The tank-mixed liquids were subjected to foliage application such that they could be sufficiently adhered to the leaves of the aforementioned turf plants. After completion of the foliage application, the plants were air-dried. Thereafter, bran medium containing mycelium of Rhizoctonia solani, pathogen of brown patch of turf, was sprinkled over the planted area. […] The diameter of infected area on the planted area on which the agents had been sprayed was determined as the incidence of disease at the time of checking and the control value was calculated by the aforementioned Equation 1 based on the incidence of disease determined. […] Besides, in order to calculate the control value, the incidence of disease was also determined in the case in which the plants had not been treated with the agent.

[2] = system: Botrytis cinerea, pathogen of gray mold of cucumber; test: Test Example 3: foliage application on cucumber, gray mold control (with ipconazole); settings: 6 days after inoculation
Description: Control value=100(A−B)/A “Equation 1”;
Generally, the control value expected for the case where the given two kinds of active ingredient compounds are mixed and used for the treatment, the so-called control value expectation is calculated from the following Colby's calculating equation. E=X+Y−(X×Y)/100 “Equation 2”; […]
A plastic pot was filled with sandy soil, and cucumber (Sagamihanjiro) was then disseminated. […] The diameter of infected area on the plants on which the agents had been sprayed was determined as the incidence of disease at the time of checking and the control value was calculated by the aforementioned Equation 1 based on the incidence of disease thus determined.
(§1) As a comparison, the respective wettable powders described above were diluted with water in predetermined concentration so as to prepare a compound (1b) liquid and an ipconazole liquid respectively and they were subjected to similar disease control test. Besides, in order to calculate the control value, the incidence of disease was also determined in the case in which the plants has not been treated with the agent.

[3] = system: Botrytis cinerea, pathogen of gray mold of cucumber; test: Test Example 1: foliage application on cucumber, gray mold control (with metconazole); settings: 6 days after inoculation
Excerpt: A plastic pot was filled with sandy soil, and cucumber (Sagamihanjiro) was then disseminated. The cucumber was allowed to grow in a green house for 12 days. A wettable powder of the compound (1b) and a commercially available metconazole formulation (Caramba (registered trademark) produced by BASF) were respectively diluted with water and then tank-mixed so as to prepare tank-mixed liquids containing compound (1b) and metconazole in predetermined concentration. The tank-mixed liquids were subjected to foliage application such that they could be sufficiently adhered to the leaves of the aforementioned cucumber plants. After completion of the foliage application, the plants were air-dried. […] The diameter of infected area on the plants on which the agents had been sprayed was determined as the incidence of disease at the time of checking and the control value was calculated by Equation 1 based on the incidence of disease thus determined.
as §1, with “a metconazole” for “an ipconazole”, “had” for “has”, “agent. […]” for “agent.”

[4] = system: Rhizoctonia solani, pathogen of cucumber damping-off; test: Test Example 2: smear treatment of cucumber seeds, damping-off control (with metconazole); settings: metconazole alone 1 g/100 kg-seed, seventh day
Description: Control value=100(A−B)/A “Equation 1”; Generally, the control value expected for the case where the given two kinds of active ingredient compounds are mixed and used for the treatment, the so-called control value expectation is calculated from the following Colby's calculating equation. E=X+Y−(X×Y)/100 “Equation 2”; E: Control value (%) expected for the case in which active ingredient compound A in M ppm, in M g per 100 kg of seeds or in M g per 1 hectare and active ingredient compound B in N ppm, in N g per 100 kg of seeds or in N g per 1 hectare are mixed and used for treatment (hereinbelow referred to as “control value expectation”) “Synergetic effect(%)”=(Actual control value)×100/(Control value expectation) Mixed liquids containing an acetone solution of compound (1b) and an acetone solution of metconazole were prepared. These mixed liquids were used for smear treatment of cucumber (Sagamihanjiro) seeds using a rotary seed treatment machine (seed dresser, produced by Hans-Ulrich Hege GmbH) so as to obtain treated seeds. […] They were allowed to grow in a greenhouse while irrigated and the number of non-budding seeds was checked on the seventh day after the dissemination and the incidence of disease was calculated by Equation 3. The control value was calculated by the aforementioned Equation 1 based on the incidence of disease. […]

[5] = system: Rhizoctonia solani, pathogen of cucumber damping-off; test: Test Example 4: smear treatment of cucumber seeds, damping-off control (with ipconazole); settings: ipconazole alone 1 g/100 kg-seed, seventh day
Description: Control value=100(A−B)/A “Equation 1”; Generally, the control value expected for the case where the given two kinds of active ingredient compounds are mixed and used for the treatment, the so-called control value expectation is calculated from the following Colby's calculating equation. E=X+Y−(X×Y)/100 “Equation 2”; E: Control value (%) expected for the case in which active ingredient compound A in M ppm, in M g per 100 kg of seeds or in M g per 1 hectare and active ingredient compound B in N ppm, in N g per 100 kg of seeds or in N g per 1 hectare are mixed and used for treatment (hereinbelow referred to as “control value expectation”) “Synergetic effect(%)”=(Actual control value)×100/(Control value expectation) The results are shown in Table 3. […] They were allowed to grow in a greenhouse while irrigated and the number of non-budding seeds was checked on the seventh day after the dissemination and the incidence of disease was calculated by the aforementioned Equation 3. The control value was calculated by the aforementioned Equation 1 based on the incidence of disease. In order to calculate the control value, the incidence of disease was also determined in the case in which the plants had not been treated with the agent. […]

## CNC(=O)C(OC)c1ccccc1COc1cc(C)ccc1C (racemic) [Compound (1b)]
[1]; compound (1b) alone 600 g/ha
  Actual control value: 88%
[2]; compound (1b) alone 0.2 ppm
  Actual control value: 8%
[3]; compound (1b) alone 0.2 ppm
  Actual control value: 16%

## CC1(C)CCC(Cc2ccc(Cl)cc2)C1(O)Cn1cncn1 (stereo not drawn) [Metconazole, metconazole]
[1]; metconazole alone 9.4 g/ha
  Actual control value: 63%
[1]; metconazole alone 37.5 g/ha
  Actual control value: 63%
[4]
  Actual control value: 39%
[3]; metconazole alone 0.8 ppm
  Actual control value: 8%

## CC(C)C1CCC(Cc2ccc(Cl)cc2)C1(O)Cn1cncn1 (stereo not drawn) [Ipconazole, ipconazole]
[2]; ipconazole alone 3.1 ppm
  Actual control value: 13%
[5]
  Actual control value: 30%
